From patent publication US9056104B2, “Dynamic inhibitors of heat shock protein 90” (THE UNIVERSITY OF KANSAS, priority 2011, dated 2015)
Like-named read-outs stand apart in the source and are kept apart here.

Legend:
Type in all cases: cell-based
[1] = system: MCF-7 (estrogen receptor positive breast cancer cells); experiment: Anti-proliferative activity against MCF-7 cells; settings: mean ± SD
Description: (§1) Once synthesized, the library of coumermycin A1 analogs containing the olefinic and saturated linkers, were evaluated for anti-proliferative activity against SKBr3 (estrogen receptor negative, Her2 over-expressing breast cancer cells), MCF-7 (estrogen receptor positive breast cancer cells), A549 (human lung adenocarcinoma epithelial), HT29 (Human colon adenocarcinoma grade II), and PC3mm2 (androgen receptor insensitive prostate cancer) cell lines. […] As shown, X is at the 6 position and Y is at the 8 position.

[2] = system: SKBr3 (estrogen receptor negative, Her2 over-expressing breast cancer cells); experiment: Anti-proliferative activity against SKBr3 cells; settings: mean ± SD
Description: as §1

[3] = system: HT29 (Human colon adenocarcinoma grade II); experiment: Anti-proliferative activity against HT29 cells; settings: Table 2; read-out: Anti-Proliferation Activities of non-Noviosylated Olefin Dimers, HT29
Description: as §1, with “lines. The activities produced provide insight into the optimal distance between binding sites and provide rationale for subsequent analog design.” for “lines.”

[4] = system: A549 (human lung adenocarcinoma epithelial); experiment: Anti-proliferative activity against A549 cells; settings: Table 2; read-out: Anti-Proliferation Activities of non-Noviosylated Olefin Dimers, A549
Description: as §1, with “lines. The activities produced provide insight into the optimal distance between binding sites and provide rationale for subsequent analog design.” for “lines.”

[5] = system: PC3mm2 (androgen receptor insensitive prostate cancer); experiment: Anti-proliferative activity against PC3mm2 cells; settings: Table 2; read-out: Anti-Proliferation Activities of non-Noviosylated Olefin Dimers, PC3mm2
Description: as §1, with “lines. The activities produced provide insight into the optimal distance between binding sites and provide rationale for subsequent analog design.” for “lines.”

[6] = system: SKBr3, MCF-7, A549, HT29 and PC3mm2 cell lines; experiment: Anti-proliferative activity, cell lines not specified; settings: 8-methyl coumarin series, versus Compound 32
Description: as §1, with “lines. The activities produced provide insight into the optimal distance between binding sites and provide rationale for subsequent analog design.” for “lines.”

[7] = system: HSP90-dependent client proteins (Her-2, Raf, Akt); experiment: Western blot analyses of HSP90 client protein degradation in MCF-7 breast cancer cells; settings: MCF-7 lysates, 24 hour treatment, 5x and 1/2 of antiproliferative IC50; actin control
Description: Since actin is not dependent on HSP90 for its maturation, actin levels should remain constant after treatment with an HSP90 inhibitor and is therefore used as a control. […] L represents a concentration ½ of the anti-proliferative IC50 value while H represents a concentration 5 times greater than the anti-proliferative IC50 value. GDA (500 nM) represents a positive control, while DMSO (0), vehicle, serves as the negative control. […]

[8] = Table 1, at least two experiments in triplicate, read-out: Anti-Proliferation Activities of Noviosylated Olefin Dimers, MCF-7
[9] = Table 1, at least two experiments in triplicate, read-out: Anti-Proliferation Activities of Noviosylated Olefin Dimers, SKBr3
[10] = Table 2, read-out: Anti-Proliferation Activities of non-Noviosylated Olefin Dimers, MCF7
[11] = Table 2, read-out: Anti-Proliferation Activities of non-Noviosylated Olefin Dimers, SKBr3

Row | Structure (SMILES) | IC50 [1, 8] | IC50 [2, 9] | IC50 [1, 10] | IC50 [3] | IC50 [4] | IC50 [2, 11] | IC50 [5] | fold more active than the 10-carbon linker (Compound 32) [6] | degradation of HSP90 client proteins (Her-2, Raf, Akt), Western blot [7]
1 | COC1C(O)C(O)C(Oc2ccc3cc(NC(=O)CC=CCC(=O)Nc4cc5ccc(OC6OC(C)(C)C(OC)C(O)C6O)c(C)c5oc4=O)c(=O)oc3c2C)OC1(C)C (stereo not drawn) [Compound 20] | 53100 ± 7100 nM | > 100000 nM | – | – | – | – | – | – | –
2 | Cc1c(OC2CCN(C)CC2)ccc2cc(NC(=O)C/C=C/CC(=O)Nc3cc4ccc(OC5CCN(C)CC5)c(C)c4oc3=O)c(=O)oc12 [Compound 26] | – | – | 290 ± 10 nM | 7100 nM | 8840 nM | 180 ± 30 nM | 7510 nM | – | –
3 | COc1cc2cc(NC(=O)C/C=C/CC(=O)Nc3cc4cc(OC)c(OC5CCN(C)CC5)c(C)c4oc3=O)c(=O)oc2c(C)c1OC1CCN(C)CC1 [Compound 27] | – | – | 560 ± 50 nM | – | 550 nM | 270 ± 10 nM | 170 nM | – | –
4 | COc1c(OC2CCN(C)CC2)ccc2cc(NC(=O)C/C=C/CC(=O)Nc3cc4ccc(OC5CCN(C)CC5)c(OC)c4oc3=O)c(=O)oc12 [Compound 28] | – | – | 1460 ± 200 nM | – | – | 710 ± 40 nM | 8630 nM | – | –
5 | COc1cc2cc(NC(=O)CC/C=C/CCC(=O)Nc3cc4cc(OC)c(OC5CCN(C)CC5)c(C)c4oc3=O)c(=O)oc2c(C)c1OC1CCN(C)CC1 [Compound 30] | – | – | 1310 ± 100 nM | – | 13400 nM | 1100 ± 130 nM | 4860 nM | – | –
6 | COc1cc2cc(NC(=O)CCC/C=C/CCCC(=O)Nc3cc4cc(OC)c(OC5CCN(C)CC5)c(C)c4oc3=O)c(=O)oc2c(C)c1OC1CCN(C)CC1 [Compound 33] | – | – | 310 ± 50 nM | – | 37700 nM | 220 ± 50 nM | 380 nM | – | –

Further lines, with some results ahead:

Row | IC50 [1, 8] | IC50 [2, 9] | IC50 [1, 10] | IC50 [3] | IC50 [4] | IC50 [2, 11] | IC50 [5] | Structure (SMILES) | fold more active than the 10-carbon linker (Compound 32) [6] | degradation of HSP90 client proteins (Her-2, Raf, Akt), Western blot [7]
7 | > 100000 nM | > 100000 nM | – | – | – | – | – | COc1cc2cc(NC(=O)CC=CCC(=O)Nc3cc4cc(OC)c(OC5OC(C)(C)C(OC)C(O)C5O)c(C)c4oc3=O)c(=O)oc2c(C)c1OC1OC(C)(C)C(OC)C(O)C1O (stereo not drawn) [Compound 16] | – | –
8 | > 100000 nM | 52000 ± 7800 nM | – | – | – | – | – | COc1c(OC2OC(C)(C)C(OC)C(O)C2O)ccc2cc(NC(=O)CC=CCC(=O)Nc3cc4ccc(OC5OC(C)(C)C(OC)C(O)C5O)c(OC)c4oc3=O)c(=O)oc12 (stereo not drawn) [Compound 17] | – | –
9 | 168000 ± 9700 nM | 106000 ± 13200 nM | – | – | – | – | – | COc1cc2cc(NC(=O)CCC=CCCC(=O)Nc3cc4cc(OC)c(OC5OC(C)(C)C(OC)C(O)C5O)c(C)c4oc3=O)c(=O)oc2c(C)c1OC1OC(C)(C)C(OC)C(O)C1O (stereo not drawn) [Compound 18] | – | –
10 | 3900 ± 700 nM | 1500 ± 100 nM | – | – | – | – | – | COC1C(O)C(O)C(Oc2ccc3cc(NC(=O)CCC=CCCC(=O)Nc4cc5ccc(OC6OC(C)(C)C(OC)C(O)C6O)c(C)c5oc4=O)c(=O)oc3c2C)OC1(C)C (stereo not drawn) [Compound 21] | – | –
11 | – | – | 270 ± 20 nM | 50 nM | 5540 nM | 150 ± 10 nM | 4190 nM | Cc1c(OC2CCN(C)CC2)ccc2cc(NC(=O)CC/C=C/CCC(=O)Nc3cc4ccc(OC5CCN(C)CC5)c(C)c4oc3=O)c(=O)oc12 [Compound 29] | 2-3 fold | –
12 | – | – | 1120 ± 30 nM | – | 1220 nM | 2220 ± 500 nM | 60 nM | COc1c(OC2CCN(C)CC2)ccc2cc(NC(=O)CC/C=C/CCC(=O)Nc3cc4ccc(OC5CCN(C)CC5)c(OC)c4oc3=O)c(=O)oc12 [Compound 31] | – | no activity against HSP90 client proteins
13 | – | – | 880 ± 110 nM | – | 1210 nM | 370 ± 50 nM | 50 nM | COc1c(OC2CCN(C)CC2)ccc2cc(NC(=O)CCC/C=C/CCCC(=O)Nc3cc4ccc(OC5CCN(C)CC5)c(OC)c4oc3=O)c(=O)oc12 [Compound 34] | – | –
